Calls of active or inactive are those of the source.
Key:
[1] = THP-1 cell cytotoxicity, dose response, cytotoxicity control for Vif-APOBEC3G degradation inhibitor project, THP-1 cells (AID 1117359); format: functional; conditions: Human immunodeficiency virus 1, THP-1
[2] = molecular target: Paired box protein Pax-8 (Homo sapiens, UniProt Q06710); test: inhibitors of PAX8-driven TPO luciferase reporter, dose response, RMG-I cells, cherry-pick (AID 687027); format: functional, cell-based;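 further: luciferase reporter driven by Pax8 target thyroperoxidase promoter measured by SteadyGlo luminescence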
Sequence of Paired box protein Pax-8 (Q06710 whole entry): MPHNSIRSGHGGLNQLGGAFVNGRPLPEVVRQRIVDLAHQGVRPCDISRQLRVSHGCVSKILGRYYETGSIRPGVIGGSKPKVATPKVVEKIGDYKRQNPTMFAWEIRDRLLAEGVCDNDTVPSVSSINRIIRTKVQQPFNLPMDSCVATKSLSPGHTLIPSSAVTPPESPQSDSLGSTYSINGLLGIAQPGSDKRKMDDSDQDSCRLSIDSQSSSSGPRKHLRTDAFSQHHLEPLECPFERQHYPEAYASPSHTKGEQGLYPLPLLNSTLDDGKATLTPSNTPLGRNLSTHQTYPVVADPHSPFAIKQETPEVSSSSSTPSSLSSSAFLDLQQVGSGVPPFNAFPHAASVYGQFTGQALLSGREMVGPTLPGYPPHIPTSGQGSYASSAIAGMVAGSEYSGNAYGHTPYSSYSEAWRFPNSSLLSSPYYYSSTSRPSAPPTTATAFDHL

[3] = IOSE-T80 ovarian epithelial cell cytotoxicity, dose response, cytotoxicity control for PAX8 inhibitor project, plate reader, dry powder samples (AID 743045); format: functional, cell-based
[4] = NIH:OVCAR-3 ovarian cancer cell cytotoxicity, dose response, PAX8 inhibitor project, plate reader, dry powder samples (AID 743044); format: functional, cell-based
[5] = IGROV1 ovarian cancer cell cytotoxicity, dose response, PAX8 inhibitor project, plate reader, dry powder samples (AID 743043); format: functional, cell-based; conditions: IGROV-1
[6] = non-specific cell cytotoxicity, dose response, cytotoxicity control for PAX8 inhibitor project, plate reader, dry powder samples (AID 743021); format: functional, cell-based
[7] = cytotoxicity in OVCAR8 ovarian cancer cells, dose response, PAX8 project, cell-based, plate reader, dry powder samples (AID 743197); format: functional; conditions: OVCAR-8
[8] = A2780 ovarian cancer cell cytotoxicity, dose response, cytotoxicity control, plate reader, dry powder samples (AID 743046); format: functional, cell-based
[9] = P. falciparum 3D7-ScDHODH growth inhibitors, dose response, SYBR Green, dry powder samples (AID 1159570); format: functional, cell-based;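 further: parasite growth measured after 72 hours of compound exposure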
[10] = P. falciparum Dd2 growth inhibitors, dose response, SYBR Green, dry powder samples, set 9 (AID 1159568); format: functional, cell-based
[11] = P. falciparum Dd2 growth inhibitors, dose response, SYBR Green, cherry-picked samples (AID 1159567); format: functional, cell-based
[12] = P. falciparum Dd2 growth inhibitors, dose response, SYBR Green, dry powder samples (AID 1159566); format: functional, cell-based;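 further: potency for growth inhibition with lower SYBR green DNA signal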
[13] = Plasmodium falciparum Dd2 Sybr green parasite growth Measured in Cell-Based and Microorganism Combination System Using Plate Reader - 2153-01_Inhibitor_Dose_DryPowder_Activity_Set3.; format: functional
[14] = P. falciparum ATP4 D1247Y mutant growth inhibitors, dose response, NITD609-resistant line, SYBR Green, dry powder (AID 1159571); format: functional, cell-based;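 further: parasites synchronized at ring stage by sorbitol before testing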
[15] = A375 melanoma cell viability loss, dose response, counter-screen for MITF inhibitor project, CellTiter-Glo luminescence, dry powder, set 4 (AID 624364); format: functional, cell-based; conditions: A-375;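 further: A375 melanoma cells are MITF independent so this is a counter screen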
[16] = A375 melanoma cell cytotoxicity, dose response, counter-screen for MITF inhibitor project, CellTiter-Glo luminescence, dry powder, set 2 (AID 624489); format: functional, cell-based; conditions: A-375;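 further: actives are compounds lowering A375 viability meaning general cytotoxicity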
[17] = molecular target: Metabotropic glutamate receptor 5 (Rattus norvegicus, UniProt P31424); test: Identification of a glycine sulfonamide based non-MPEP site positive allosteric potentiator (PAM) of mGlu5 (calcium_assay).; format: functional
Sequence of Metabotropic glutamate receptor 5 (P31424 whole entry): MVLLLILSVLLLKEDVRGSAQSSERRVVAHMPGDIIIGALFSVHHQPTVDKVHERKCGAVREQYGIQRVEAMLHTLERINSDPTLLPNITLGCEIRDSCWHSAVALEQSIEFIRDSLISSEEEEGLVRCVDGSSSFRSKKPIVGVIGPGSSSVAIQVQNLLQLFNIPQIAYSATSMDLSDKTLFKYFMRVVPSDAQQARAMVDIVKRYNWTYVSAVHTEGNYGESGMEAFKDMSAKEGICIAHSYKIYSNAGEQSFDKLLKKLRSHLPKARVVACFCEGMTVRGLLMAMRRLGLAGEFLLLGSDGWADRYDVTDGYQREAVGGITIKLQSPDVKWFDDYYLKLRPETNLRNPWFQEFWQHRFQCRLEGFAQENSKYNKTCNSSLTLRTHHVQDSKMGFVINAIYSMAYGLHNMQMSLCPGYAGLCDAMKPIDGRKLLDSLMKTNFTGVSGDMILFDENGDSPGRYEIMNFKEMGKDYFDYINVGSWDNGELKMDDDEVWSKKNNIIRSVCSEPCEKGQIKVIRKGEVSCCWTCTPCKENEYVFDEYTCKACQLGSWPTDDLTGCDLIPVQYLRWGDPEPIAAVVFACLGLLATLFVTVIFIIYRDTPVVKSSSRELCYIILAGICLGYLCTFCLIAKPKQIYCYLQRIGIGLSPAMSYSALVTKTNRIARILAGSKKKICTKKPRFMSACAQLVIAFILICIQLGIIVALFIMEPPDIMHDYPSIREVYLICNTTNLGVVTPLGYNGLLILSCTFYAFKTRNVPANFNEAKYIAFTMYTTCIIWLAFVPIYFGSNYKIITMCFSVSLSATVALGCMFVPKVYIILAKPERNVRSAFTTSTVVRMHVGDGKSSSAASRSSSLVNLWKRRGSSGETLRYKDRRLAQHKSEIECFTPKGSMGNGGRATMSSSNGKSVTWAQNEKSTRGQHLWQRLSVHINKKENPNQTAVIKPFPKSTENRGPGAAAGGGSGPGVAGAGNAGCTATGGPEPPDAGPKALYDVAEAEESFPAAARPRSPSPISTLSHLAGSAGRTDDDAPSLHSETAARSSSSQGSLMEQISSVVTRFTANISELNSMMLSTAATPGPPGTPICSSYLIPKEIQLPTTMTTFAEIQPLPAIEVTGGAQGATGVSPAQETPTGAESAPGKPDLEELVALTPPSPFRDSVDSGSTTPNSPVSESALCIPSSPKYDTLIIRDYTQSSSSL

[18] = molecular target: Mitogen-activated protein kinase 10 (Homo sapiens, UniProt P53779); test: Dose response biochemical screening assay for inhibitors of c-Jun N-Terminal Kinase 3 (JNK3). [Related pubchem assays: 746 ]
Sequence of Mitogen-activated protein kinase 10 (P53779 whole entry): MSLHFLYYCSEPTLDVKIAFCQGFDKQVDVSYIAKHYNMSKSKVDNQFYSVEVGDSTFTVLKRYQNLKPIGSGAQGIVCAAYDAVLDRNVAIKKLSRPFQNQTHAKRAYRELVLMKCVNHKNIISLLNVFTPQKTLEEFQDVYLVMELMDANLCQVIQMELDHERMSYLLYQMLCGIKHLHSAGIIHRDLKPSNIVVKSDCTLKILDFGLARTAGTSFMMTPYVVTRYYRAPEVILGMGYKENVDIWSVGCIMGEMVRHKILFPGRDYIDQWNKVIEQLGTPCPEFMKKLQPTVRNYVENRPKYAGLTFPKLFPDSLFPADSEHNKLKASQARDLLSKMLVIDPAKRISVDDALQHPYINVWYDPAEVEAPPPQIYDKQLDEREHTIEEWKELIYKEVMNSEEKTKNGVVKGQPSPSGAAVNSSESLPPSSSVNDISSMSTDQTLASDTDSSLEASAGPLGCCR

[19] = HepG2 cell cytotoxicity, dose response, cytotoxicity control, plate reader, dry powder samples (AID 1159569); format: functional, cell-based;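 further: inhibitor potency with signal falling toward the positive control level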
[20] = HepG2 cell cytotoxicity, dose response, cytotoxicity control, cherry-picked samples (AID 1159577); format: functional, cell-based

For `CC12CCC(C(=O)Nc3cc(F)ccc3F)(CC1=O)C2(C)C` (stereo unspecified), the CC50 [1] was > 40 µM (active).
For `COc1ccc(NC(=O)N2C[C@@H]3N[C@H](C2)[C@@H]3c2ccc(-c3ccc(OC)cc3)cc2)cc1`, the AC50 [2] was 13.7 µM (active), the AC50 [3] was 23.3 µM (active) and the AC50 [4] was 46.6 µM (active). The AC50 [5] was 26.6 µM (active), the AC50 [6] was 32.5 µM (active) and the AC50 [7] was 48.5 µM (active).
For `C[C@@H]1CN([C@@H](C)CO)C(=O)c2cc(NC(=O)Nc3ccc(F)cc3)ccc2O[C@@H](C)CCCCO[C@@H]1CN(C)Cc1ccc(C(F)(F)F)cc1`, the AC50 [2] was 9.46 µM (active), the AC50 [8] was 0.363 µM (active) and the AC50 [4] was 33.6 µM (active). The AC50 [7] was 39.9 µM (active).
With `CCCNC(=O)N1[C@H](C#N)[C@H](c2ccc(C#Cc3cccc(F)c3)cc2)[C@H]1CO` the AC50 [9] was 8.92 µM (active), the AC50 [10] was 0.00951 µM (active) and the AC50 [11] was < 0.3 µM (active). For the same compound, the AC50 [12] was 0.00355 µM (active), the AC50 [13] was 0.0243 µM (active) and the AC50 [14] was 0.00678 µM (active).
For `O=C(NC1=C(c2ccc(OC(F)(F)F)cc2)C(=O)c2ccccc2C1=O)c1ccc(Br)cc1`, the AC50 [15] was 41.1 µM (active) and the AC50 [16] was 36.5 µM (active).
For `CS(=O)(=O)N(CC(=O)NC1CCCCC1)c1cc(C(F)(F)F)ccc1Cl`, the EC50 [17] was 10 µM (inconclusive).
In the case of `CC(C(=O)Nc1ccc(Cl)cn1)N(c1ccccc1Cl)S(C)(=O)=O` (stereo unspecified), the EC50 [17] is reported as > 30 µM (inactive).
With `O=C(c1cccc2c1-c1ccccc1/C2=N/O)N1CCCCC1` the IC50 [18] was 40.7 µM (not active).
For `COc1ccc(-c2ccc([C@H]3[C@@H](C#N)N(C(=O)NC4CCCC4)[C@@H]3CO)cc2)cc1`, the AC50 [9] was 5.29 µM (active), the AC50 [19] was 81.4 µM (active) and the AC50 [11] was < 0.3 µM (active). The AC50 [12] was 0.23 µM (active), the AC50 [20] was > 39 µM (inactive) and the AC50 [13] was 0.208 µM (active). The AC50 [14] was 0.248 µM (active).
For `CC(=O)NC1=C(c2cccc(Cl)c2)C(=O)c2ccccc2C1=O`, the AC50 [15] was 14.4 µM (active) and the AC50 [16] was 7.22 µM (active).
